Measurements: PubChem BioAssay (NCI)
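Five concentrations, 48 hours, 96-well plates. TGI denotes the concentration required for complete inhibition of growth.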

How the values were obtained:
Assay in all cases: growth of human tumour cells (NCI), 48 h
A498 renal = test system: A498 renal
A549 NSCLC = test system: A549 NSCLC
ACHN renal = test system: ACHN renal
CAKI-1 renal = test system: CAKI-1 renal
DMS 114 small cell lung = test system: DMS 114 small cell lung
HCT-116 colon = test system: HCT-116 colon
HCT-15 colon = test system: HCT-15 colon
HOP-62 NSCLC = test system: HOP-62 NSCLC
HOP-92 NSCLC = test system: HOP-92 NSCLC
HT29 colon = test system: HT29 colon
IGROV1 ovarian = test system: IGROV1 ovarian
KM12 colon = test system: KM12 colon
KM20L2 colon = test system: KM20L2 colon
LOX IMVI melanoma = test system: LOX IMVI melanoma
LXFL 529 NSCLC = test system: LXFL 529 NSCLC
M14 melanoma = test system: M14 melanoma
M19-MEL melanoma = test system: M19-MEL melanoma
MALME-3M melanoma = test system: MALME-3M melanoma
NCI-H460 lung = test system: NCI-H460 lung
NCI-H522 lung = test system: NCI-H522 lung
OVCAR-3 ovarian = test system: OVCAR-3 ovarian
OVCAR-5 ovarian = test system: OVCAR-5 ovarian
SF-268 CNS = test system: SF-268 CNS
SF-539 CNS = test system: SF-539 CNS
SK-MEL-2 melanoma = test system: SK-MEL-2 melanoma
SK-MEL-28 melanoma = test system: SK-MEL-28 melanoma
SK-MEL-5 melanoma = test system: SK-MEL-5 melanoma
SK-OV-3 ovarian = test system: SK-OV-3 ovarian
SN12C renal = test system: SN12C renal
SNB-75 CNS = test system: SNB-75 CNS
SNB-78 CNS = test system: SNB-78 CNS
SR leukemia = test system: SR leukemia
SW-620 colon = test system: SW-620 colon
TK-10 renal = test system: TK-10 renal
U251 CNS = test system: U251 CNS
UACC-62 melanoma = test system: UACC-62 melanoma
UO-31 renal = test system: UO-31 renal
786-0 renal = test system: 786-0 renal
BT-549 breast = test system: BT-549 breast
CCRF-CEM leukemia = test system: CCRF-CEM leukemia
COLO 205 colon = test system: COLO 205 colon
DU-145 prostate = test system: DU-145 prostate
EKVX NSCLC = test system: EKVX NSCLC
HCC-2998 colon = test system: HCC-2998 colon
HL-60(TB) leukemia = test system: HL-60(TB) leukemia
HS 578T breast = test system: HS 578T breast
K-562 leukemia = test system: K-562 leukemia
MCF7 breast = test system: MCF7 breast
MDA-MB-231 breast = test system: MDA-MB-231 breast
MDA-MB-435 = test system: MDA-MB-435
MDA-N = test system: MDA-N
MOLT-4 leukemia = test system: MOLT-4 leukemia
NCI-H226 lung = test system: NCI-H226 lung
NCI-H23 lung = test system: NCI-H23 lung
NCI/ADR-RES ovarian = test system: NCI/ADR-RES ovarian
OVCAR-4 ovarian = test system: OVCAR-4 ovarian
OVCAR-8 ovarian = test system: OVCAR-8 ovarian
PC-3 prostate = test system: PC-3 prostate
RPMI-8226 leukemia = test system: RPMI-8226 leukemia
RXF 393 renal = test system: RXF 393 renal
SF-295 CNS = test system: SF-295 CNS
SNB-19 CNS = test system: SNB-19 CNS
T-47D breast = test system: T-47D breast
UACC-257 melanoma = test system: UACC-257 melanoma

SMILES: COc1cc2c(cc1OC)C1C(=O)c3c(O)cc4c(c3OC1CO2)C=CC(C)(C)O4 (stereo unspecified)
- TGI (A498 renal): > 100 µM
- TGI (A549 NSCLC): > 100 µM
- TGI (ACHN renal): > 100 µM
- TGI (CAKI-1 renal): > 100 µM
- TGI (DMS 114 small cell lung): 25.7 µM
- TGI (HCT-116 colon): 70.6 µM
- TGI (HCT-15 colon): > 100 µM
- TGI (HOP-62 NSCLC): 55.6 µM
- TGI (HOP-92 NSCLC): 74.5 µM
- TGI (HT29 colon): > 100 µM
- TGI (IGROV1 ovarian): > 100 µM
- TGI (KM12 colon): 68.3 µM
- TGI (KM20L2 colon): 89.5 µM
- TGI (LOX IMVI melanoma): 38.8 µM
- TGI (LXFL 529 NSCLC): 94 µM
- TGI (M14 melanoma): 76.3 µM
- TGI (M19-MEL melanoma): 61.4 µM
- TGI (MALME-3M melanoma): 72.9 µM
- TGI (NCI-H460 lung): 93.1 µM
- TGI (NCI-H522 lung): 5.45 µM
- TGI (OVCAR-3 ovarian): 65.5 µM
- TGI (OVCAR-5 ovarian): > 100 µM
- TGI (SF-268 CNS): > 100 µM
- TGI (SF-539 CNS): > 100 µM
- TGI (SK-MEL-2 melanoma): 50.7 µM
- TGI (SK-MEL-28 melanoma): > 100 µM
- TGI (SK-MEL-5 melanoma): 25.3 µM
- TGI (SK-OV-3 ovarian): > 100 µM
- TGI (SN12C renal): > 100 µM
- TGI (SNB-75 CNS): 96.4 µM
- TGI (SNB-78 CNS): > 100 µM
- TGI (SR leukemia): > 100 µM
- TGI (SW-620 colon): > 100 µM
- TGI (TK-10 renal): > 100 µM
- TGI (U251 CNS): 93.2 µM
- TGI (UACC-62 melanoma): 52.3 µM
- TGI (UO-31 renal): 59.2 µM

SMILES: CC1=C2CC(C)(C)/C=C\C(=O)/C(C)=C\C3=C[C@H](C)C[C@]3(O2)C1=O
- TGI (786-0 renal): 1.25 µM
- TGI (A498 renal): 11.1 µM
- TGI (A549 NSCLC): 15.5 µM
- TGI (ACHN renal): 2.9 µM
- TGI (BT-549 breast): 1.5 µM
- TGI (CAKI-1 renal): 2.42 µM
- TGI (CCRF-CEM leukemia): 0.661 µM
- TGI (COLO 205 colon): 9.27 µM
- TGI (DU-145 prostate): 12.1 µM
- TGI (EKVX NSCLC): 6.15 µM
- TGI (HCC-2998 colon): 10.2 µM
- TGI (HCT-116 colon): 1.09 µM
- TGI (HCT-15 colon): 2.53 µM
- TGI (HL-60(TB) leukemia): 2.43 µM
- TGI (HOP-62 NSCLC): 15.9 µM
- TGI (HOP-92 NSCLC): 2.88 µM
- TGI (HS 578T breast): 22.3 µM
- TGI (HT29 colon): 2.76 µM
- TGI (IGROV1 ovarian): 5.44 µM
- TGI (K-562 leukemia): 14.4 µM
- TGI (KM12 colon): 6 µM
- TGI (LOX IMVI melanoma): 1.64 µM
- TGI (M14 melanoma): 1.27 µM
- TGI (MALME-3M melanoma): 2.34 µM
- TGI (MCF7 breast): 2.14 µM
- TGI (MDA-MB-231 breast): 9.33 µM
- TGI (MDA-MB-435): 1.66 µM
- TGI (MDA-N): 9.98 µM
- TGI (MOLT-4 leukemia): 1.53 µM
- TGI (NCI-H226 lung): 8.49 µM
- TGI (NCI-H23 lung): 3.76 µM
- TGI (NCI-H460 lung): 14 µM
- TGI (NCI-H522 lung): 0.651 µM
- TGI (NCI/ADR-RES ovarian): 7.77 µM
- TGI (OVCAR-3 ovarian): 1.15 µM
- TGI (OVCAR-4 ovarian): 5.28 µM
- TGI (OVCAR-5 ovarian): 3.37 µM
- TGI (OVCAR-8 ovarian): 6.82 µM
- TGI (PC-3 prostate): 7.09 µM
- TGI (RPMI-8226 leukemia): 1.51 µM
- TGI (RXF 393 renal): 2.13 µM
- TGI (SF-268 CNS): 18.4 µM
- TGI (SF-295 CNS): 22 µM
- TGI (SF-539 CNS): 3.09 µM
- TGI (SK-MEL-2 melanoma): 7.69 µM
- TGI (SK-MEL-28 melanoma): 1.74 µM
- TGI (SK-MEL-5 melanoma): 8.06 µM
- TGI (SK-OV-3 ovarian): 24.6 µM
- TGI (SN12C renal): 10.2 µM
- TGI (SNB-19 CNS): 37.2 µM
- TGI (SNB-75 CNS): 12.2 µM
- TGI (SR leukemia): 0.826 µM
- TGI (SW-620 colon): 1.49 µM
- TGI (T-47D breast): 1.65 µM
- TGI (TK-10 renal): 5 µM
- TGI (U251 CNS): 9.98 µM
- TGI (UACC-257 melanoma): 4.41 µM
- TGI (UACC-62 melanoma): 3.37 µM
- TGI (UO-31 renal): 2.61 µM
